Columns and labels:
[1] = system: cocklebur; assay: Test B pre-/postemergence herbicide test; assay type: in vivo, Xanthium strumarium; conditions: for Cocklebur plant response rating (0 to 100 scale) / Plant response rating, Cocklebur: preemergence; for Cocklebur plant response rating: postemergence, scale 0 (no effect) to 100 (complete control)
Method in brief: (§1)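 Formulation: non-phytotoxic solvent mix with surfactant. Timing: preemergence on seed and postemergence on 2–18 cm plants, applied concurrently. Readout after 13–15 d greenhouse: visual 0–100 control rating against controls.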

[2] = system: rice; assay: Test B flooded paddy test; assay type: in vivo, Oryza sativa; conditions: 1000 g ai/ha, scale 0 to 100 (0 no effect, 100 complete control)
Method in brief: (§2)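 Greenhouse test; postemergence application to plants at 1–4 leaves (2–18 cm); paddy species at 2 leaves; evaluated visually vs controls at 13–15 days; scale 0–100 (100 = complete control).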

[3] = system: giant foxtail; assay: Test B pre-/postemergence herbicide test; assay type: in vivo, Setaria faberi; conditions: for Foxtail, Giant plant response rating: postemergence
Method in brief: (§3)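 Greenhouse pot assay with simultaneous preemergence (treated seed) and postemergence (2–18 cm seedlings) applications of surfactant-containing, non-phytotoxic solvent formulations. Response scored visually 13–15 days later on a 0–100 scale, 100 meaning complete control.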

[4] = system: corn; assay: Test B pre-/postemergence herbicide test; assay type: in vivo, Zea mays; conditions: for Corn plant response rating (0 to 100 scale) / Plant response rating, Corn: preemergence; for Corn plant response rating: postemergence
Method in brief: as §3

[5] = system: barnyardgrass; assay: Test B flooded paddy test; assay type: in vivo, Echinochloa crus-galli; conditions: 1000 g ai/ha, scale 0 to 100 (0 no effect, 100 complete control)
Method in brief: (§4)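 Scale 0–100: zero equals no visible effect, 100 complete control, judged by eye relative to controls. Timing: 13 to 15 days in greenhouse post-treatment. Growth stage at spraying: two leaves (paddy) or one to four leaves, 2–18 cm (postemergence).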

[6] = system: blackgrass; assay: Test B postemergence herbicide test; assay type: in vivo, Alopecurus myosuroides; conditions: postemergence, visual rating, scale 0 (no effect) to 100 (complete control)
Method in brief: as §4

[7] = system: wild oat; assay: Test B postemergence herbicide test; assay type: in vivo, Avena fatua; conditions: postemergence
Method in brief: as §2

[8] = system: large crabgrass; assay: Test B pre-/postemergence herbicide test; assay type: in vivo, Digitaria sanguinalis; conditions: for Crabgrass, Large plant response rating (0 to 100 scale) / Plant response rating, Crabgrass, Large: preemergence; for Crabgrass, Large plant response rating: postemergence
Method in brief: as §3

[9] = system: small flower umbrella sedge; assay: Test B flooded paddy test; assay type: in vivo, Cyperus difformis; conditions: 1000 g ai/ha, scale 0 to 100 (0 no effect, 100 complete control)
Method in brief: as §4

[10] = system: lambsquarters; assay: Test B pre-/postemergence herbicide test; assay type: in vivo, Chenopodium album; conditions: for Lambsquarters plant response rating (0 to 100 scale) / Plant response rating, Lambsquarters: preemergence; for Lambsquarters plant response rating: postemergence
Method in brief: as §3

[11] = system: wheat; assay: Test B postemergence herbicide test; assay type: in vivo, Triticum aestivum; design: key to Wheat plant response rating: 0 = no effect, 100 = complete control; conditions: postemergence
Method in brief: as §2

[12] = system: morningglory; assay: Test B pre-/postemergence herbicide test; assay type: in vivo, Ipomoea coccinea; conditions: for Morningglory plant response rating: postemergence
Method in brief: as §1

[13] = system: rice; assay: Test B pre-/postemergence herbicide test; assay type: in vivo, Oryza sativa; conditions: preemergence; for Rice plant response rating (0 to 100 scale): 125 g ai/ha; for Plant response rating, Rice: 500 g ai/ha
Source text: Seeds selected from barnyardgrass (Echinochloa crus-galli (L.) Beauv.), Surinam grass (Urochloa decumbens (Staph) R. D. Webster, previously named Brachiaria decumbens Stapf), cocklebur (Xanthium strumarium L.), corn (Zea mays L.), large crabgrass (Digitaria sanguinalis (L.) Scop.), giant foxtail (Setaria faberi Herim.), lambsquarters (Chenopodium album L.), morningglory (Ipomoea coccinea L.), pigweed (Amaranthus retroflexus L.), rice (Oryza sativa L.) and velvetleaf (Abutilon theophrasti Medik.) were planted and treated preemergence with test chemicals formulated in a non-phytotoxic solvent mixture which included a surfactant.
At the same time, plants selected from these crop and weed species and also blackgrass (Alopecurus myosuroides Huds.), wheat (Triticum aestivum L.) and wild oat (Avena fatua L.) were treated with postemergence applications of test chemicals formulated in the same manner. Plants ranged in height from 2 to 18 cm (1- to 4-leaf stage) for postemergence treatments. Plant species in the flooded paddy test consisted of rice (Oryza sativa L.), small flower umbrella sedge (Cyperus difformis L.), ducksalad (Heteranthera limosa (Sw.) Willd.) and barnyardgrass (Echinochloa crus-galli (L.) Beauv.) grown to the 2-leaf stage for testing. Treated plants and controls were maintained in a greenhouse for 13 to 15 days, after which time all species were compared to controls and visually evaluated. Plant response ratings, summarized in Table B, are based on a scale of 0 to 100 where 0 is no effect and 100 is complete control. A dash (-) response means no test result.

[14] = system: pigweed; assay: Test B pre-/postemergence herbicide test; assay type: in vivo, Amaranthus retroflexus; conditions: for Pigweed plant response rating (0 to 100 scale) / Plant response rating, Pigweed: preemergence; for Pigweed plant response rating: postemergence
Method in brief: as §3

[15] = system: Surinam grass; assay: Test B pre-/postemergence herbicide test; assay type: in vivo, Urochloa decumbens; conditions: for Surinam Grass plant response rating: postemergence
Method in brief: as §3

[16] = system: velvetleaf; assay: Test B pre-/postemergence herbicide test; assay type: in vivo, Abutilon theophrasti; conditions: for Velvetleaf plant response rating (0 to 100 scale) / Plant response rating, Velvetleaf: preemergence; for Velvetleaf plant response rating: postemergence
Method in brief: as §3

[17] = system: ducksalad; assay: Test B flooded paddy test; assay type: in vivo, Heteranthera limosa; conditions: 1000 g ai/ha, scale 0 to 100 (0 no effect, 100 complete control)
Method in brief: as §4

[18] = system: barnyardgrass; assay: Test B pre-/postemergence herbicide test; assay type: in vivo, Echinochloa crus-galli; conditions: for Barnyardgrass plant response rating (0 to 100 scale) / Plant response rating, Barnyardgrass: preemergence; for Barnyardgrass plant response rating: postemergence, scale 0 (no effect) to 100 (complete control)
Method in brief: as §1

[19] = 125 g ai/ha, 0 = no effect, 100 = complete control
[20] = 500 g ai/ha, visual rating 0-100, 0 no effect, 100 complete control
[21] = 500 g ai/ha, visual rating 0-100, 0 no effect, 100 complete control, preemergence
[22] = 125 g ai/ha, visual rating, scale 0 (no effect) to 100 (complete control)
[23] = 500 g ai/ha, visual rating, scale 0 (no effect) to 100 (complete control)
[24] = 125 g ai/ha, 0 = no effect, 100 = complete control, preemergence
[25] = 0 = no effect, 100 = complete control
[26] = 500 g ai/ha, visual rating, 0 = no effect, 100 = complete control
[27] = 500 g ai/ha, visual rating, 0 = no effect, 100 = complete control, preemergence
[28] = 500 g ai/ha, scale 0 to 100, 0 is no effect, 100 is complete control

## CC(=NO)c1cccc(NC(=O)c2nn(C(C)(C)C)cc2C(F)(F)F)c1 [Compound 171]
[1]; [19]
  Cocklebur plant response rating (0 to 100 scale): 0
[1]; [20]
  Plant response rating, Cocklebur: 0
[1]; 125 g ai/ha, visual rating
  Cocklebur plant response rating: 0
[1]; 500 g ai/ha, visual rating
  Cocklebur plant response rating: 0
[2]; visual rating, 13 to 15 days
  Rice plant response rating: 0
[3]; [21]
  Plant response rating, Foxtail, Giant: 0
[3]; [22]
  Foxtail, Giant plant response rating: 10
[3]; [23]
  Foxtail, Giant plant response rating: 20
[4]; [19]
  Corn plant response rating (0 to 100 scale): 0
[4]; [20]
  Plant response rating, Corn: 0
[4]; [22]
  Corn plant response rating: 0
[4]; [23]
  Corn plant response rating: 10
[5]; visual rating, 13 to 15 days
  Barnyardgrass plant response rating: 0
[6]; 125 g ai/ha
  Blackgrass plant response rating: 0
[6]; 500 g ai/ha
  Blackgrass plant response rating: 0
[7]; [22]
  Oat, Wild plant response rating: 0
[7]; [23]
  Oat, Wild plant response rating: 0
[8]; [19]
  Crabgrass, Large plant response rating (0 to 100 scale): 0
[8]; [20]
  Plant response rating, Crabgrass, Large: 30
[8]; [22]
  Crabgrass, Large plant response rating: 0
[8]; [23]
  Crabgrass, Large plant response rating: 10
[9]; visual rating, 13 to 15 days
  Sedge, Umbrella plant response rating: 0
[10]; [19]
  Lambsquarters plant response rating (0 to 100 scale): 0
[10]; [20]
  Plant response rating, Lambsquarters: 0
[10]; [22]
  Lambsquarters plant response rating: 10
[10]; [23]
  Lambsquarters plant response rating: 20
[11]; [22]
  Wheat plant response rating: 0
[11]; [23]
  Wheat plant response rating: 0
[12]; [24]
  Morningglory plant response rating (0 to 100 scale): 0
[12]; [22]
  Morningglory plant response rating: 0
[12]; [23]
  Morningglory plant response rating: 0
[13]; [25]
  Rice plant response rating (0 to 100 scale): 0
[13]; visual rating 0-100, 0 no effect, 100 complete control
  Plant response rating, Rice: 0
[14]; [19]
  Pigweed plant response rating (0 to 100 scale): 0
[14]; [20]
  Plant response rating, Pigweed: 0
[14]; [22]
  Pigweed plant response rating: 10
[14]; [23]
  Pigweed plant response rating: 20
[15]; [21]
  Plant response rating, Surinam Grass: 0
[15]; [22]
  Surinam Grass plant response rating: 10
[15]; [23]
  Surinam Grass plant response rating: 10
[16]; [19]
  Velvetleaf plant response rating (0 to 100 scale): 0
[16]; [20]
  Plant response rating, Velvetleaf: 20
[16]; [22]
  Velvetleaf plant response rating: 0
[16]; [23]
  Velvetleaf plant response rating: 0
[17]; visual rating, 13 to 15 days
  Ducksalad plant response rating: 0
[18]; [19]
  Barnyardgrass plant response rating (0 to 100 scale): 0
[18]; [20]
  Plant response rating, Barnyardgrass: 0
[18]; 125 g ai/ha, visual rating
  Barnyardgrass plant response rating: 0
[18]; 500 g ai/ha, visual rating
  Barnyardgrass plant response rating: 10

## CCn1nc(C(C)(C)C)cc1C(=O)Nc1cccc(C(=O)N(C)OC)n1 [Compound 246]
[1]; [19]
  Cocklebur plant response rating (0 to 100 scale): 0
[1]; [26]
  Plant response rating, Cocklebur: 0
[1]; 125 g ai/ha, visual rating
  Cocklebur plant response rating: 20
[1]; 500 g ai/ha, visual rating
  Cocklebur plant response rating: 30
[2]
  Rice plant response rating: 60
[3]; [24]
  Foxtail, Giant plant response rating (0 to 100 scale): 30
[3]; [27]
  Plant response rating, Foxtail, Giant: 90
[3]; [22]
  Foxtail, Giant plant response rating: 30
[3]; [28]
  Foxtail, Giant plant response rating: 30
[4]; [19]
  Corn plant response rating (0 to 100 scale): 0
[4]; [26]
  Plant response rating, Corn: 20
[4]; [22]
  Corn plant response rating: 0
[4]; [28]
  Corn plant response rating: 10
[5]
  Barnyardgrass plant response rating: 50
[6]; 125 g ai/ha
  Blackgrass plant response rating: 0
[6]; 500 g ai/ha
  Blackgrass plant response rating: 0
[7]; [22]
  Oat, Wild plant response rating: 10
[7]; [28]
  Oat, Wild plant response rating: 20
[8]; [19]
  Crabgrass, Large plant response rating (0 to 100 scale): 70
[8]; [26]
  Plant response rating, Crabgrass, Large: 100
[8]; [22]
  Crabgrass, Large plant response rating: 10
[8]; [28]
  Crabgrass, Large plant response rating: 20
[9]
  Sedge, Umbrella plant response rating: 50
[10]; [19]
  Lambsquarters plant response rating (0 to 100 scale): 70
[10]; [26]
  Plant response rating, Lambsquarters: 100
[10]; [22]
  Lambsquarters plant response rating: 50
[10]; [28]
  Lambsquarters plant response rating: 70
[11]; [22]
  Wheat plant response rating: 0
[11]; [28]
  Wheat plant response rating: 30
[12]; [24]
  Morningglory plant response rating (0 to 100 scale): 0
[12]; [27]
  Plant response rating, Morningglory: 10
[12]; [22]
  Morningglory plant response rating: 0
[12]; [28]
  Morningglory plant response rating: 10
[13]; [25]
  Rice plant response rating (0 to 100 scale): 40
[13]; visual rating, 0 = no effect, 100 = complete control
  Plant response rating, Rice: 70
[14]; [19]
  Pigweed plant response rating (0 to 100 scale): 100
[14]; [26]
  Plant response rating, Pigweed: 100
[14]; [22]
  Pigweed plant response rating: 50
[14]; [28]
  Pigweed plant response rating: 60
[15]; [24]
  Surinam Grass plant response rating (0 to 100 scale): 30
[15]; [27]
  Plant response rating, Surinam Grass: 80
[15]; [22]
  Surinam Grass plant response rating: 20
[15]; [28]
  Surinam Grass plant response rating: 20
[16]; [19]
  Velvetleaf plant response rating (0 to 100 scale): 60
[16]; [26]
  Plant response rating, Velvetleaf: 90
[16]; [22]
  Velvetleaf plant response rating: 30
[16]; [28]
  Velvetleaf plant response rating: 60
[17]
  Ducksalad plant response rating: 50
[18]; [19]
  Barnyardgrass plant response rating (0 to 100 scale): 60
[18]; [26]
  Plant response rating, Barnyardgrass: 90
[18]; 125 g ai/ha, visual rating
  Barnyardgrass plant response rating: 30
[18]; 500 g ai/ha, visual rating
  Barnyardgrass plant response rating: 70

Source: patent US20060069132A1, “Azolecarboxamide herbicides” (priority 2004, published 2006)
